Earlier results in patent publication US5840712A, “Water soluble vitamin B12 receptor modulating agents and methods related thereto” (Receptagen Corporation, priority 1995, dated 1998).

Target: avidin (Gallus gallus, UniProt P02701)
Sequence (P02701 25-152): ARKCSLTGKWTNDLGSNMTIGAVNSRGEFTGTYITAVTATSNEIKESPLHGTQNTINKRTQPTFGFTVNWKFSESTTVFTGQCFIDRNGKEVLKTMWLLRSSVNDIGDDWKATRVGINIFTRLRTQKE

SMILES: O=C(O)CCCC[C@@H]1SC[C@@H]2NC(=O)N[C@@H]21 [biotin]
- specific binding affinity of biotin for avidin (Ka): 10^15
